Data from ChEMBL document CHEMBL1201862, “PubChem BioAssay data set” (2004).
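Cultured in 96-well plates, cells were exposed to test compound for 48 hours across five concentrations. GI50 = concentration required for 50% inhibition of growth.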 Active and inactive are the calls of the source. Rule as the data show it: active = GI50 up to about 1.1 µM and inactive = higher. Non-standard residues stand in square brackets, D forms with d. Residues, ends and D or L forms follow the SMILES beside them.

Experiments:
Experiment in all cases: NCI-60 cell line screen, 48 h
A549 = system: A549
CCRF-CEM = system: CCRF-CEM
HCT-15 = system: HCT-15
HL-60 = system: HL-60
K562 = system: K562
KM12 = system: KM12
LOX IMVI = system: LOX IMVI
M14 = system: M14
Malme-3M = system: Malme-3M
OVCAR-5 = system: OVCAR-5
OVCAR-8 = system: OVCAR-8
RPMI-8226 = system: RPMI-8226
RXF 393 = system: RXF 393
SF-539 = system: SF-539
SK-OV-3 = system: SK-OV-3
SNB-75 = system: SNB-75
SR = system: SR
A498 = system: A498
SK-MEL-5 = system: SK-MEL-5
UACC-257 = system: UACC-257

| SMILES | GI50 (A549) | GI50 (CCRF-CEM) | GI50 (HCT-15) [µM] | GI50 (HL-60) | GI50 (K562) | GI50 (KM12) | GI50 (LOX IMVI) | GI50 (M14) | GI50 (Malme-3M) | GI50 (OVCAR-5) | GI50 (OVCAR-8) | GI50 (RPMI-8226) | GI50 (RXF 393) | GI50 (SF-539) | GI50 (SK-OV-3) | GI50 (SNB-75) | GI50 (SR) | GI50 (A498) | GI50 (SK-MEL-5) | GI50 (UACC-257) |
| --- | --- | --- | --- | --- | --- | --- | --- | --- | --- | --- | --- | --- | --- | --- | --- | --- | --- | --- | --- | --- |
| COc1ccc(/C=N/n2cnc3c(c2=O)S/C(=C2/SC(=S)N(c4ccc(C)cc4)C2=O)N3c2ccccc2)cc1 | 41.3 µM (inactive) | 43.6 µM (inactive) | > 100 | 58.5 µM (inactive) | > 10 µM (inactive) | > 100 µM (inactive) | > 100 µM (inactive) | 19.5 µM (inactive) | 19.7 µM (inactive) | > 100 µM (inactive) | 70.5 µM (inactive) | 40.8 µM (inactive) | 17.3 µM (inactive) | 30.5 µM (inactive) | > 100 µM (inactive) | > 100 µM (inactive) | 31.6 µM (inactive) | – | – | – |
| COc1cc([C@@H]2c3cc4c(cc3[C@@H](NC(=O)c3ccc(C(C)=O)cc3)C3COC(=O)[C@@H]32)OCO4)cc(OC)c1O (stereo partly specified) | 0.0311 µM (active) | 0.0849 µM (active) | 2.46 | 0.0867 µM (active) | 1.48 µM (inactive) | 1.36 µM (inactive) | 0.289 µM (active) | 1.51 µM (inactive) | 0.254 µM (active) | 0.895 µM (active) | 1.35 µM (inactive) | 0.877 µM (active) | 3.76 µM (inactive) | 0.316 µM (active) | 1.56 µM (inactive) | 1.24 µM (inactive) | – | 1.66 µM (inactive) | 1.46 µM (inactive) | 3.88 µM (inactive) |
| COC(=O)C1Cc2c(OC)ccc(OC)c2C(O)C1C(=O)OC (stereo unspecified) | > 100 µM (inactive) | > 100 µM (inactive) | – | > 100 µM (inactive) | > 100 µM (inactive) | > 100 µM (inactive) | > 100 µM (inactive) | > 100 µM (inactive) | > 100 µM (inactive) | > 100 µM (inactive) | > 100 µM (inactive) | > 100 µM (inactive) | > 100 µM (inactive) | > 100 µM (inactive) | – | > 100 µM (inactive) | > 100 µM (inactive) | – | > 100 µM (inactive) | > 100 µM (inactive) |
| C=C1C(=O)C23C(O)CC4C5(C)CCCC4(C(O)OC5)C2C(OC(C)=O)CC1C3O (stereo unspecified) | 20.8 µM (inactive) | 1.88 µM (inactive) | 11.7 | – | 2.58 µM (inactive) | 9.02 µM (inactive) | 13.5 µM (inactive) | 3.41 µM (inactive) | 14.3 µM (inactive) | 18 µM (inactive) | 2.75 µM (inactive) | 3.64 µM (inactive) | – | 10.9 µM (inactive) | 19.7 µM (inactive) | 4.28 µM (inactive) | 3.01 µM (inactive) | – | 14.8 µM (inactive) | – |
| COc1cc2c(c(OC)c1OC)-c1ccc(SC)cc1C(=O)CC2 | < 0.01 µM (active) | < 0.01 µM (active) | < 0.01 | < 0.01 µM (active) | < 0.01 µM (active) | < 0.01 µM (active) | < 0.01 µM (active) | < 0.01 µM (active) | < 0.01 µM (active) | > 100 µM (inactive) | < 0.01 µM (active) | < 0.01 µM (active) | 66.8 µM (inactive) | < 0.01 µM (active) | < 0.01 µM (active) | 1 µM (active) | < 0.0213 µM (active) | – | < 0.01 µM (active) | – |
| CC1OC2OC3C(OCC(O)C3O)OC(=O)[C@]34CCC(C)(C)CC3C3=CCC5[C@@]6(C)C[C@H](O)[C@H](OC7OC(CO)C(O)C(O)C7OC7OCC(OC(=O)CC(C)(O)CC(=O)OC1C(O)C2O)C(O)C7O)[C@@](C)(CO)C6CC[C@@]5(C)[C@]3(C)CC4 (stereo partly specified) | 2.24 µM (inactive) | 5.68 µM (inactive) | 7.98 | 1.82 µM (inactive) | – | 2.82 µM (inactive) | 9.86 µM (inactive) | 2.82 µM (inactive) | 3.68 µM (inactive) | 2.66 µM (inactive) | 4.5 µM (inactive) | 4.17 µM (inactive) | – | 12.7 µM (inactive) | 3.19 µM (inactive) | 5.64 µM (inactive) | 6.35 µM (inactive) | – | 4.18 µM (inactive) | 2.33 µM (inactive) |
| CN(/N=C/c1cccc2cccnc12)c1ccccc1 | > 100 µM (inactive) | > 100 µM (inactive) | > 100 | > 100 µM (inactive) | > 100 µM (inactive) | 78.3 µM (inactive) | > 100 µM (inactive) | > 100 µM (inactive) | > 100 µM (inactive) | > 100 µM (inactive) | > 100 µM (inactive) | > 100 µM (inactive) | 41.9 µM (inactive) | 37.2 µM (inactive) | > 100 µM (inactive) | 20.4 µM (inactive) | – | > 100 µM (inactive) | > 100 µM (inactive) | 52 µM (inactive) |
| CC1NC(=O)CC(c2ccccc2)N(N=O)C1c1ccccc1 (stereo unspecified) | 53.2 µM (inactive) | 23.8 µM (inactive) | 39.5 | 24.8 µM (inactive) | 28 µM (inactive) | 56.1 µM (inactive) | 37.9 µM (inactive) | – | 52.5 µM (inactive) | > 100 µM (inactive) | 34 µM (inactive) | 26.5 µM (inactive) | 22.4 µM (inactive) | 23.4 µM (inactive) | 22.8 µM (inactive) | 25.4 µM (inactive) | – | 8.89 µM (inactive) | 28.6 µM (inactive) | 55.6 µM (inactive) |
| CC(C)C[C@H](NC(=O)[C@H](CC(C)C)NC(=O)[C@@H](Cc1c[nH]c2ccccc12)NC(=O)[C@H](Cc1ccccc1)NC(=O)[C@@H](Cc1c[nH]c2ccccc12)NC(=O)[C@H](CCC(N)=O)NC(=O)[C@H](CCC(N)=O)NC(=O)[C@H]1CCCN1C(=O)[C@@H](N)CCCCN)C(N)=O (H-K[dP]QQ[dW]F[dW]LL-NH2) | > 100 µM (inactive) | > 100 µM (inactive) | > 100 | > 100 µM (inactive) | > 100 µM (inactive) | > 100 µM (inactive) | > 100 µM (inactive) | – | > 100 µM (inactive) | > 100 µM (inactive) | > 100 µM (inactive) | > 100 µM (inactive) | > 100 µM (inactive) | > 100 µM (inactive) | > 100 µM (inactive) | > 100 µM (inactive) | – | > 100 µM (inactive) | > 100 µM (inactive) | > 100 µM (inactive) |
| COc1cc(C[C@@]2(C)[C@@H]3CCC[C@H](CO)[C@@]3(C)CC[C@@H]2C)c(Cl)c(OC)c1 | 14.4 µM (inactive) | 29.4 µM (inactive) | 16.7 | 17.6 µM (inactive) | 16.3 µM (inactive) | 18.2 µM (inactive) | 17.8 µM (inactive) | 18.3 µM (inactive) | 16.2 µM (inactive) | 18.3 µM (inactive) | 16 µM (inactive) | 20.2 µM (inactive) | 11.6 µM (inactive) | 14.7 µM (inactive) | 17.5 µM (inactive) | 18 µM (inactive) | 16 µM (inactive) | – | 17 µM (inactive) | 18.7 µM (inactive) |
| C#C/C=C\CCCC/C=C\C#CC#CCCCC#CC#C[C@H](COS(=O)(=O)O)OS(=O)(=O)O | > 100 µM (inactive) | > 100 µM (inactive) | > 100 | > 100 µM (inactive) | – | > 100 µM (inactive) | > 100 µM (inactive) | > 100 µM (inactive) | – | > 100 µM (inactive) | > 100 µM (inactive) | > 100 µM (inactive) | – | > 100 µM (inactive) | – | 33 µM (inactive) | > 100 µM (inactive) | – | > 100 µM (inactive) | > 100 µM (inactive) |
| CN(C)CCNc1c2ccccc2c2c3c(cccc13)C(=O)N(CCN(C)C)C2=O | 0.193 µM (active) | 0.111 µM (active) | 0.0615 | 0.229 µM (active) | 0.0522 µM (active) | 0.232 µM (active) | 0.071 µM (active) | – | 0.348 µM (active) | 0.224 µM (active) | 0.129 µM (active) | 0.288 µM (active) | 0.0232 µM (active) | 0.374 µM (active) | 0.221 µM (active) | 0.176 µM (active) | – | 0.641 µM (active) | 0.697 µM (active) | 0.49 µM (active) |
| Oc1ccc(-c2nc3ccc(Br)cc3s2)cc1 | 21.7 µM (inactive) | 3.74 µM (inactive) | 20.3 | 17 µM (inactive) | 23.5 µM (inactive) | 14.7 µM (inactive) | 15.5 µM (inactive) | 18.9 µM (inactive) | 27 µM (inactive) | 24 µM (inactive) | 20.4 µM (inactive) | 15.1 µM (inactive) | 31.3 µM (inactive) | 14.8 µM (inactive) | 19.5 µM (inactive) | – | 10.3 µM (inactive) | – | 13.5 µM (inactive) | 21.4 µM (inactive) |
| N#Cc1ccccc1NC(=O)C(=O)c1c(O)c2ccccc2oc1=O | > 100 µM (inactive) | > 100 µM (inactive) | > 100 | > 100 µM (inactive) | > 100 µM (inactive) | > 100 µM (inactive) | > 100 µM (inactive) | > 100 µM (inactive) | > 100 µM (inactive) | > 100 µM (inactive) | > 100 µM (inactive) | > 100 µM (inactive) | > 100 µM (inactive) | > 100 µM (inactive) | > 100 µM (inactive) | > 100 µM (inactive) | – | > 100 µM (inactive) | > 100 µM (inactive) | > 100 µM (inactive) |
| C[N+](C)(C)C.FC(F)(F)C1(C(F)(F)F)O[SiH-]2(OC(C(F)(F)F)(C(F)(F)F)c3ccccc32)c2ccccc21 | 10 µM (inactive) | – | 10.4 | – | 5.87 µM (inactive) | 19.9 µM (inactive) | – | 10 µM (inactive) | 19.5 µM (inactive) | 13.2 µM (inactive) | 15.3 µM (inactive) | 16.4 µM (inactive) | 13 µM (inactive) | 11.9 µM (inactive) | – | – | 14.5 µM (inactive) | – | – | 24.4 µM (inactive) |
